Read-outs that look alike come from different tables or passages of the source.
Columns and labels:
[1] = cited from earlier work
[2] = e-beam sterilisation of S-nitrosoglutathione at unconstrained temperature (Example 1), HPLC purity and impurities vs non-irradiated control; type: physicochemical; settings: ~27.5 °C
Protocol: S-nitrosoglutathione granule samples from a single manufacturing batch, contained in glass vials (up to 250 mg/vial), were stored before sterilisation surrounded by dry ice (solid CO2) at about −80° C. The matching controls were not irradiated but underwent similar conditions of storage and thermal management before, during and after irradiation, as compared with the S-nitrosoglutathione vials that were irradiated. The control purity levels of the S-nitrosoglutathione, and the level of specific impurities glutathione (GSH) and oxidised glutathione (GSSG) content and total impurities content, were analysed. Vials were exposed to either electron beam (e-beam) irradiations or to gamma irradiations. The vials were removed from the dry ice container and sterilised via two radiation dose conditions (15 kGy and 35 kGy) described below under higher temperature conditions (with surrounding air temperature in the range about 18 to 24° C. and with the temperature of the vials free to fluctuate to higher temperature). After irradiation, the vials were immediately surrounded by dry ice at about −80° C. and analysed for post-sterilisation determination of any changes in purity against the control. The e-beam radiation was performed using a moving carrier system set up for delivering a 15 kGy dose and a 35 kGy dose. The 15 kGy radiation dose lasted about 10-15 minutes and the temperature reached approximately equal to 27.5° C. (designated 27.5° C. in the Tables and Figs.). The 35 kGy radiation dose lasted about 30 minutes and the temperature reached approximately equal to 27.5° C. (designated ˜27.5° C. in the Tables and the Figs.). The radiation doses were measured by conventional dosimeters.

[3] = liquid formulation, after at least 8-12 hours at 4 °C to 25 °C (Looker et al., 2008); cited from earlier work
[4] = gamma sterilisation of S-nitrosoglutathione at unconstrained temperature (Example 1), HPLC purity and impurities vs non-irradiated control; type: physicochemical
Protocol: S-nitrosoglutathione granule samples from a single manufacturing batch, contained in glass vials (up to 250 mg/vial), were stored before sterilisation surrounded by dry ice (solid CO2) at about −80° C. The matching controls were not irradiated but underwent similar conditions of storage and thermal management before, during and after irradiation, as compared with the S-nitrosoglutathione vials that were irradiated. The control purity levels of the S-nitrosoglutathione, and the level of specific impurities glutathione (GSH) and oxidised glutathione (GSSG) content and total impurities content, were analysed. Vials were exposed to either electron beam (e-beam) irradiations or to gamma irradiations. The vials were removed from the dry ice container and sterilised via two radiation dose conditions (15 kGy and 35 kGy) described below under higher temperature conditions (with surrounding air temperature in the range about 18 to 24° C. and with the temperature of the vials free to fluctuate to higher temperature). After irradiation, the vials were immediately surrounded by dry ice at about −80° C. and analysed for post-sterilisation determination of any changes in purity against the control. The gamma radiation was performed using a moving carrier system set up for delivering a 15 kGy dose and a 35 kGy dose. The 15 kGy dose radiation lasted about 8-10 hours and the temperature reached up to 40° C. The 35 kGy dose radiation lasted about 18-24 hours, with a temperature reaching up to 60° C. The radiation doses received were measured by conventional dosimeters.

[5] = e-beam sterilisation of S-nitrosoglutathione at constrained temperatures (Example 2), HPLC purity and impurities vs non-irradiated control; type: physicochemical; settings: few sec.
Protocol: The experimental protocol for this Example aims to test in a controlled manner the effects on purity of a sterilizing irradiation temperature (a) at about −80° C. and (b) under positive cooling (with surrounding air temperature in the range about 18 to 24° C. and with the temperature of the vials controlled). The same radiation doses as described for Example 1 were applied. For this Example, S-nitrosoglutathione granule samples, from the same single manufacturing batch as in Example 1, contained in amber glass vials (100 mg/vial) were stored before sterilisation at about −80° C. The irradiation process at −80° C. was achieved by the presence of dry ice, which was placed to ensure low temperature of the vials but without influencing the radiation dose delivery characteristics. The matching controls were not irradiated but underwent similar conditions of thermal management before, during and after irradiation, as compared with the S-nitrosoglutathione vials that were irradiated. The e-beam radiation was performed using a moving carrier system. The S-nitrosoglutathione vials were stored at −80° C. freezer and transferred to a dry ice container before irradiation. Before the start of irradiation the S-nitrosoglutathione vials destined for irradiation at ambient temperature (and control vials) were removed from the −80° C. freezer and transferred to a location where the surrounding air temperature is controlled at 18° C. Individual low-temperature containers were used for the vials designated for each target dose and condition of thermal management. A secondary packaging box was placed in the lateral centre at the bottom of the first low-temperature container, with the vials oriented upright. The position of each vial in the configuration was documented. The vials were always irradiated from the same side. […] The arrows marked “e” show the direction of the radiation. For the S-nitrosoglutathione vials requiring cold chain management, dry ice was placed at each lateral short side of the container to ensure a cold chain was maintained during the irradiation process. Each container was placed in an irradiation container. Both the 15 kGy e-beam and 35 kGy radiation doses lasted a few seconds. Following completion of the desired irradiation process, the irradiated S-nitrosoglutathione containing vials and correspondent controls were stored at −80° C. in a freezer for subsequent analysis.

[6] = gamma sterilisation of S-nitrosoglutathione at constrained temperatures (Example 2), HPLC purity and impurities vs non-irradiated control; type: physicochemical
Protocol: The experimental protocol for this Example aims to test in a controlled manner the effects on purity of a sterilizing irradiation temperature (a) at about −80° C. and (b) under positive cooling (with surrounding air temperature in the range about 18 to 24° C. and with the temperature of the vials controlled). The same radiation doses as described for Example 1 were applied. For this Example, S-nitrosoglutathione granule samples, from the same single manufacturing batch as in Example 1, contained in amber glass vials (100 mg/vial) were stored before sterilisation at about −80° C. The irradiation process at −80° C. was achieved by the presence of dry ice, which was placed to ensure low temperature of the vials but without influencing the radiation dose delivery characteristics. The matching controls were not irradiated but underwent similar conditions of thermal management before, during and after irradiation, as compared with the S-nitrosoglutathione vials that were irradiated. The gamma radiation was performed using gamma radiation emitted from cobalt-60 radioactive sources. The S-nitrosoglutathione vials were stored at −80° C. in a freezer and transferred to a dry ice container before irradiation. Before the start of irradiation, the S-nitrosoglutathione vials destined for irradiation at ambient temperature (and control vials) were removed from the −80° C. freezer and transferred to a location where the surrounding temperature was controlled at 18° C. Individual low-temperature containers were used for the samples designated for each target dose and condition of thermal management, as described above in relation to the e-beam arm of this Example. The secondary packaging was placed in the lateral centre at the bottom of first low-temperature container, with the vials oriented upright. […] The arrows marked “γ” show the direction of the radiation. For the S-nitrosoglutathione product requiring cold chain management, dry ice was placed at each lateral short side of the low-temperature container to ensure a cold chain was maintained during the irradiation process. Each low-temperature container was placed in the lateral centre of an irradiation container. The 15 kGy radiation dose lasted 2 hours and 8 minutes whereas the 35 kGy dose lasted about 5 hours and 8 minutes. When necessary, the dry ice was replenished before execution of the second irradiation. Following completion of the irradiation process, the irradiated S-nitrosoglutathione products were placed in the designated −80° C. freezer. The control samples were moved from the 18° C. controlled location to the designated −80° C. freezer upon completion of the second irradiation. The time of transfer was recorded.

SMILES: N[C@@H](CCC(=O)N[C@@H](CSN=O)C(=O)NCC(=O)O)C(=O)O [GSNO, S-nitrosoglutathione]
- time reported to be stable on storage ([1]; solid prepared by a specific method, further controlled air, radiation and temperature conditions (Looker et al., 2008; WO 2008/153762)): 9 months
- time reported to be stable on storage ([1]; solid, inert atmosphere (argon and nitrogen), −20 °C, in the dark (Parent et al., 2013)): 6 months
- GSH impurity (% unit change) ([2]; 15 kGy, 10-15 minutes): 0.17%
- GSNO purity (decrease % of control) ([2]; 15 kGy, 10-15 minutes): −0.55%
- GSSH impurity (% unit change) ([2]; 15 kGy, 10-15 minutes): 0.11%
- Total impurities (% unit changes) ([2]; 15 kGy, 10-15 minutes): 0.53%
- GSH impurity (% unit change) ([2]; 35 kGy, ~30 minutes): 0.36%
- GSNO purity (decrease % of control) ([2]; 35 kGy, ~30 minutes): −1.37%
- GSSH impurity (% unit change) ([2]; 35 kGy, ~30 minutes): 0.32%
- Total impurities (% unit changes) ([2]; 35 kGy, ~30 minutes): 1.26%
- initial S-nitrosoglutathione present after storage [3]: about 85%
- GSH impurity (% unit change) ([4]; 15 kGy, 8-10 hours, <40 °C): 0.34%
- GSNO purity (decrease % of control) ([4]; 15 kGy, 8-10 hours, <40 °C): −4.47%
- GSSH impurity (% unit change) ([4]; 15 kGy, 8-10 hours, <40 °C): 1.25%
- Total impurities (% unit changes) ([4]; 15 kGy, 8-10 hours, <40 °C): 4.25%
- GSH impurity (% unit change) ([4]; 35 kGy, 18-24 hours, <60 °C): 0.15%
- GSNO purity (decrease % of control) ([4]; 35 kGy, 18-24 hours, <60 °C): −9.45%
- GSSH impurity (% unit change) ([4]; 35 kGy, 18-24 hours, <60 °C): 6.63%
- Total impurities (% unit changes) ([4]; 35 kGy, 18-24 hours, <60 °C): 9.12%
- GSH impurity (% unit change) ([5]; 15 kGy, <27.5 °C): 0.13%
- GSNO purity (decrease % of control) ([5]; 15 kGy, <27.5 °C): −0.28%
- GSSH impurity (% unit change) ([5]; 15 kGy, <27.5 °C): 0.13%
- Total impurities (% unit changes) ([5]; 15 kGy, <27.5 °C): 0.27%
- GSH impurity (% unit change) ([5]; 15 kGy, −80 °C): 0.10%
- GSNO purity (decrease % of control) ([5]; 15 kGy, −80 °C): −0.16%
- GSSH impurity (% unit change) ([5]; 15 kGy, −80 °C): 0.10%
- Total impurities (% unit changes) ([5]; 15 kGy, −80 °C): 0.16%
- GSH impurity (% unit change) ([5]; 35 kGy, <27.5 °C): 0.29%
- GSNO purity (decrease % of control) ([5]; 35 kGy, <27.5 °C): −1.12%
- GSSH impurity (% unit change) ([5]; 35 kGy, <27.5 °C): 0.23%
- Total impurities (% unit changes) ([5]; 35 kGy, <27.5 °C): 1.08%
- GSH impurity (% unit change) ([5]; 35 kGy, −80 °C): 0.23%
- GSNO purity (decrease % of control) ([5]; 35 kGy, −80 °C): −0.55%
- GSSH impurity (% unit change) ([5]; 35 kGy, −80 °C): 0.07%
- Total impurities (% unit changes) ([5]; 35 kGy, −80 °C): 0.54%
- GSH impurity (% unit change) ([6]; 15 kGy, ~2 h, <27.5 °C): 0.17%
- GSNO purity (decrease % of control) ([6]; 15 kGy, ~2 h, <27.5 °C): −0.67%
- GSSH impurity (% unit change) ([6]; 15 kGy, ~2 h, <27.5 °C): 0.14%
- Total impurities (% unit changes) ([6]; 15 kGy, ~2 h, <27.5 °C): 0.63%
- GSH impurity (% unit change) ([6]; 15 kGy, ~2 h, −80 °C): 0.11%
- GSNO purity (decrease % of control) ([6]; 15 kGy, ~2 h, −80 °C): −0.26%
- GSSH impurity (% unit change) ([6]; 15 kGy, ~2 h, −80 °C): 0.11%
- Total impurities (% unit changes) ([6]; 15 kGy, ~2 h, −80 °C): 0.25%
- GSH impurity (% unit change) ([6]; 35 kGy, ~5 h, <32.5 °C): 0.43%
- GSNO purity (decrease % of control) ([6]; 35 kGy, ~5 h, <32.5 °C): −2.2%
- GSSH impurity (% unit change) ([6]; 35 kGy, ~5 h, <32.5 °C): 0.36%
- Total impurities (% unit changes) ([6]; 35 kGy, ~5 h, <32.5 °C): 2.11%
- GSH impurity (% unit change) ([6]; 35 kGy, ~5 h, −80 °C): 0.29%
- GSNO purity (decrease % of control) ([6]; 35 kGy, ~5 h, −80 °C): −1.01%
- GSSH impurity (% unit change) ([6]; 35 kGy, ~5 h, −80 °C): 0.36%
- Total impurities (% unit changes) ([6]; 35 kGy, ~5 h, −80 °C): 0.96%
